Data from patent EP0344425A2, “N-[[(2,6-disubstituted)phenyl]-N'- arylalkyl] ureas as antihypercholesterolemic and antiatherosclerotic agents” (WARNER-LAMBERT COMPANY, priority 1988, dated 1989).

Target: acyl-CoA:cholesterol acyltransferase (ACAT)
Assay: in vitro ACAT inhibition test (formation of radio-labeled cholesterol oleate from radio-labeled oleic acid in rabbit intestinal microsomes)
Type: biochemical
Settings: tissue preparation containing rabbit intestinal microsomes; acylation of cholesterol by oleic acid; read-out: IC₅₀

Compound	IC50
CC(C)c1cccc(C(C)C)c1NC(=O)NCCc1cccc2ccccc12 [Example 10, N-[2,6-bis(1-Methylethyl)phenyl]-N′-[2-(1-naphthalenyl)ethyl]urea]	41 nM
CC(C)c1cccc(C(C)C)c1NC(=O)NCCc1ccccc1 [Example 6, N-[2,6-bis(1-Methylethyl)phenyl]-N′-(2-phenylethyl)urea]	88 nM
CC(C)c1cccc(C(C)C)c1NC(=O)NCCCc1ccccc1 [Example 8, N-[2,6-bis(1-Methylethyl)phenyl]-N′-(3-phenylpropyl)urea]	191 nM
CC(C)c1cccc(C(C)C)c1NC(=O)N[C@H](C)c1cccc2ccccc12 [Example 12, [R]-N-[2,6-bis(1-Methylethyl)phenyl]-N′-[1-(1-naphthalenyl)ethyl]urea]	35 nM
CC(C)c1cccc(C(C)C)c1NC(=O)N[C@@H](C)c1cccc2ccccc12 [Example 13, [S]-N-[2,6-bis(1-Methylethyl)phenyl]-N′-[1-(1-naphthalenyl)ethyl]urea]	630 nM

Further compounds by falling IC50, results first:

IC50	Compound
35 nM	CC(C)c1cccc(C(C)C)c1NC(=O)NCC(C)c1ccccc1 (stereo not shown) [Example 7]
34 nM	CC(C)c1cccc(C(C)C)c1NC(=O)NCc1cccc2ccccc12 [Example 9, N-[2,6-bis(1-Methylethyl)phenyl]-N′-[(1-naphthalenyl)methyl]urea]
30 nM	CCCC(CCC)(CNC(=O)Nc1c(C(C)C)cccc1C(C)C)c1ccccc1 [Example 1, N-[2,6-bis(1-Methylethyl)phenyl]-N′-(2-phenyl-2-propylpentyl)urea]
30 nM	CCCCC(CCCC)(CNC(=O)Nc1c(C(C)C)cccc1C(C)C)c1ccccc1 [Example 5, N-[2,6-bis(1-Methylethyl)phenyl]-N′-(2-butyl-2-phenylhexyl)urea]
17 nM	CCC(CC)(CNC(=O)Nc1c(C(C)C)cccc1C(C)C)c1ccccc1 [Example 2, N-[2,6-bis(1-Methylethyl)phenyl]-N′-(2-ethyl-2-phenylbutyl)urea]
